Source: ChEMBL document CHEMBL1201862, “PubChem BioAssay data set” (2004)
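Grown in 96-well plates, cells were treated for 48 hours with each compound at five concentrations. Insufficient inhibition: endpoint recorded as highest concentration tested. GI50: concentration for 50% inhibition of growth.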 Active and inactive are the calls of the source. No stated cut-off is given here; in the data, active = GI50 up to about 1.1 µM and inactive = higher.

How the values were obtained:
Test in all cases: NCI tumour cell line growth inhibition, 48 h
A498 = system: A498
BT-549 = system: BT-549
CAKI-1 = system: CAKI-1
CCRF-CEM = system: CCRF-CEM
HOP-92 = system: HOP-92
HT-29 = system: HT-29
KM12 = system: KM12
MCF7 = system: MCF7
MDA-MB-231 = system: MDA-MB-231
MDA-MB-435 = system: MDA-MB-435
MDA-N = system: MDA-N
PC-3 = system: PC-3
SK-MEL-28 = system: SK-MEL-28
SK-OV-3 = system: SK-OV-3
SN12C = system: SN12C
SNB-19 = system: SNB-19
SNB-75 = system: SNB-75
T47D = system: T47D
TK-10 = system: TK-10
UO-31 = system: UO-31

| SMILES | GI50 (A498) | GI50 (BT-549) | GI50 (CAKI-1) | GI50 (CCRF-CEM) | GI50 (HOP-92) | GI50 (HT-29) | GI50 (KM12) | GI50 (MCF7) | GI50 (MDA-MB-231) | GI50 (MDA-MB-435) | GI50 (MDA-N) | GI50 (PC-3) | GI50 (SK-MEL-28) | GI50 (SK-OV-3) | GI50 (SN12C) | GI50 (SNB-19) | GI50 (SNB-75) | GI50 (T47D) | GI50 (TK-10) | GI50 (UO-31) |
| --- | --- | --- | --- | --- | --- | --- | --- | --- | --- | --- | --- | --- | --- | --- | --- | --- | --- | --- | --- | --- |
| CC(C)OC(=O)c1ccc(NCc2cc(O)ccc2O)cc1Cl | 11 µM (inactive) | 0.327 µM (active) | 0.861 µM (active) | 0.258 µM (active) | 1.51 µM (inactive) | 9.57 µM (inactive) | 3.64 µM (inactive) | 3.47 µM (inactive) | 4.18 µM (inactive) | 2.15 µM (inactive) | 3.18 µM (inactive) | 2.57 µM (inactive) | 4.28 µM (inactive) | 7.21 µM (inactive) | 4 µM (inactive) | 2.64 µM (inactive) | 6.73 µM (inactive) | 1.56 µM (inactive) | 6.98 µM (inactive) | 0.993 µM (active) |
| CC12OOC(c3ccccc31)c1c2ccc2ccccc12 (stereo not given) | 17.6 µM (inactive) | 10.4 µM (inactive) | 0.641 µM (active) | 0.904 µM (active) | 2.44 µM (inactive) | 2.62 µM (inactive) | 2.62 µM (inactive) | 13.2 µM (inactive) | 12 µM (inactive) | 6.3 µM (inactive) | 5.53 µM (inactive) | 5.66 µM (inactive) | 13.8 µM (inactive) | 20 µM (inactive) | 15.8 µM (inactive) | 16.7 µM (inactive) | 8.47 µM (inactive) | 1.82 µM (inactive) | 9.68 µM (inactive) | 9.55 µM (inactive) |
| COC(=O)[C@@H]1[C@H]2CC[C@]3(C)[C@@H](OC(C)=O)CC[C@H]3[C@@H]2CC[C@H]1C1(C)SCCS1 | 57.5 µM (inactive) | 18.4 µM (inactive) | 41.6 µM (inactive) | 36.9 µM (inactive) | 18.7 µM (inactive) | 15 µM (inactive) | 28.6 µM (inactive) | 27 µM (inactive) | 17.1 µM (inactive) | 16.3 µM (inactive) | 22 µM (inactive) | 26.8 µM (inactive) | 34.7 µM (inactive) | 53.6 µM (inactive) | 18.5 µM (inactive) | 50.5 µM (inactive) | 37.2 µM (inactive) | 20.4 µM (inactive) | 75 µM (inactive) | 38.6 µM (inactive) |
| CC1SCCc2nc3ccccc3n21 (stereo not given) | > 100 µM (inactive) | > 100 µM (inactive) | > 100 µM (inactive) | > 100 µM (inactive) | > 100 µM (inactive) | > 100 µM (inactive) | > 100 µM (inactive) | > 100 µM (inactive) | > 100 µM (inactive) | > 100 µM (inactive) | > 100 µM (inactive) | > 100 µM (inactive) | > 100 µM (inactive) | > 100 µM (inactive) | > 100 µM (inactive) | > 100 µM (inactive) | > 100 µM (inactive) | > 100 µM (inactive) | > 100 µM (inactive) | > 100 µM (inactive) |
| CCOC(=O)C(N)CSC(=O)NC (stereo not given) | 236 µM (inactive) | 121 µM (inactive) | 104 µM (inactive) | 49.3 µM (inactive) | 98.4 µM (inactive) | 78.7 µM (inactive) | 175 µM (inactive) | 93.5 µM (inactive) | 99.1 µM (inactive) | 45 µM (inactive) | 39.8 µM (inactive) | 132 µM (inactive) | 136 µM (inactive) | 286 µM (inactive) | 71.6 µM (inactive) | 251 µM (inactive) | 243 µM (inactive) | 133 µM (inactive) | 247 µM (inactive) | 259 µM (inactive) |
| O=C1c2nc3n(c2C(=O)c2c1nc1n2CCC1)CCC3 | 16 µM (inactive) | > 10 µM (inactive) | 9.35 µM (inactive) | 6.41 µM (inactive) | 13.1 µM (inactive) | 3.14 µM (inactive) | 4.41 µM (inactive) | 2.68 µM (inactive) | > 10 µM (inactive) | 2.02 µM (inactive) | 1.77 µM (inactive) | > 10 µM (inactive) | 13.3 µM (inactive) | 23.7 µM (inactive) | 3.64 µM (inactive) | 14.7 µM (inactive) | 15.2 µM (inactive) | > 10 µM (inactive) | 27.6 µM (inactive) | 18.8 µM (inactive) |
